Source: US7601884B2, “Method of producing cloned animals by demecolcine treatment” (KNU - Industry Cooperation Foundation, priority 2007, dated 2009)

What was measured:
SCNT embryos [1] = assay: Production of pseudo-pronuclei of SCNT embryos after DEM treatment; format: cell-based, pig; details: 0.4 μg/ml DEM for 4 hours
Method: (§1) After the activation stimulation, the activated embryos were incubated in NCSU-23 culture medium containing 0.4 μg/ml demecolcine (DEM) (Sigma-Aldrich Corp., USA) for 4 hours.
The oocytes treated with DEM of Exemplary Embodiment 3 or the oocytes of Comparative Example 1 were cultured in vitro for 7 hours, activated, fixed for 11 hours, and stained to estimate the number of pseudo-pronuclei and their production rate. The fixation of the oocytes was performed using a whole-mount method. 10 to 20 oocytes were placed on a slide glass and covered with a cover glass. The oocytes were fixed in a fixative (25% acetic acid in ethanol) at 33° C. for 10 to 20 minutes. The fixed oocytes were stained with 1% orcein (in 45% acetic acid solution) and then the pseudo pronuclei were observed by a phase microscope.

[2] = tested on: recipient pigs transferred with SCNT embryos; assay: Delivery rate and number of pigs born alive after in vivo transfer of DEM-treated SCNT embryos; set-up: species or system pig
Description: For in vivo transfer of the NT embryos, a naturally-estrous gilt was used as a recipient animal. On the day of the production of the NT embryos, a standing estrus pig was subjected to inhalation anesthesia, and using a common method, cut open to expose the ovaries and oviducts. After confirming the presence of follicle, ovulation and corpus luteum in the ovary, 90 to 160 SCNT embryos activated and treated with DEM were transferred into the oviduct by fimbriae. The recipient pig into which the NT embryos were transferred was monitored to confirm whether or not it was estrus, and a pregnancy test was taken every two weeks, 4 weeks after transfer of the fertilized embryos. When the recipient pig gave birth to live, SCNT embryo-derived offspring, its period of pregnancy, the number of live offspring, their weight, and morphological abnormalities found in any of the live offspring were monitored and recorded.
The effect of DEM treatment to the SCNT embryos on delivery rate and the number of pigs born alive was surveyed. Each group of SCNT embryos (107-160/a recipient pig), wherein one was treated with DEM according to Exemplary Embodiment 4 and the other (102-165/a recipient pig) was not treated with DEM, was transferred into 8 to 10 recipient pigs monitored to see whether or not they were estrus. Starting 4 weeks after transfer of the fertilized embryos, they were given pregnancy tests every 2 weeks. When they gave birth to live, SCNT embryo-derived offspring, the period of pregnancy, the number of live offspring, their weight and any morphological abnormalities were monitored and recorded. Further, the number of recipient pigs having live offspring and the number of pigs born alive in a litter were surveyed.

SCNT porcine embryos = assay: In vitro development of SCNT porcine embryos after DEM treatment; format: cell-based, pig
Method: as §1
With the same method as in Exemplary Embodiment <3-4>, the fused NT embryos were electrically activated, but not treated with DEM.
After activation stimulation, the SCNT embryos were cultured in in vitro culture medium for 6 days in an atmosphere of 5% CO2, 5% O2 and 90% N2 gas.
(§2) The SCNT embryos of Exemplary Embodiment 3 and Comparative Example 1 were cultured in vitro with an atmosphere of 5% CO2, 5% O2 and 90% N2 gases. On the second and sixth days of the in vitro culture, their division rates and development to blastocysts were monitored. Further, the blastocysts were stained with bis-benzimide to estimate the number of cells under a fluorescent microscope.

SCNT embryos [3] = assay: In vitro development of SCNT embryos according to time of DEM treatment; format: cell-based, pig
Method: as §2
Change in in vitro development of SCNT embryos depending on the time of DEM treatment was surveyed. The SCNT embryos activated according to Exemplary Embodiment <3-4> were incubated in NCSU-23 culture medium containing 0.4 μg/ml DEM for 2, 4 and 6 hours, respectively, and cultured in vitro by the same method as described in Experimental Example 1, followed by observation of their development to blastocysts.

[4] = recipient pig transferred with SCNT embryos treated with DEM
[5] = 0.4 μg/ml DEM for 2 hrs, of N=141
[6] = 0.4 μg/ml DEM for 4 hrs, of N=142
[7] = 0.4 μg/ml DEM for 6 hrs, of N=142

SMILES: CN[C@H]1CCc2cc(OC)c(OC)c(OC)c2-c2ccc(OC)c(=O)cc21 [DEM, demecolcine]
- 1PPN (one pseudo pronucleus) (%) (SCNT embryos [1]): 83.7%
- Multi-PPN (2 or more pseudo pronuclei) (%) (SCNT embryos [1]): 9.3%
- Others(%) (SCNT embryos [1]): 7.0%
- 1PPN (one pseudo pronucleus), number of embryos (SCNT embryos [1]; of N=43): 36
- Multi-PPN (2 or more pseudo pronuclei), number of embryos (SCNT embryos [1]; of N=43): 4
- Others, number of embryos (SCNT embryos [1]; of N=43): 3
- No. of Pigs/Litter ([2]; SCNT embryos treated with DEM): 3.0
- No. of Pigs Born Alive ([2]; SCNT embryos treated with DEM, 8 recipient pigs): 12
- Recipient Pigs Delivered(%) ([2]; SCNT embryos treated with DEM, 107-160 per recipient pig): 50.0%
- No. of Recipient Pigs Delivered ([2]; SCNT embryos treated with DEM, 107-160 per recipient pig, of N=8 recipients): 4
- delivery rate versus Comparative Example 1 (no DEM) [2, 4]: significantly increased
- number of pigs born alive in a litter versus Comparative Example 1 (no DEM) [2, 4]: significantly increased
- ≧2-Cell(%) (SCNT porcine embryos; 0.4 μg/ml DEM for 4 hours after activation, second day of in vitro culture): 76.8%
- ≧2-Cell, number of embryos (SCNT porcine embryos; 0.4 μg/ml DEM for 4 hours after activation, second day of in vitro culture, of N=187): 144
- Blastocyst(%) (SCNT porcine embryos; 0.4 μg/ml DEM for 4 hours after activation, sixth day of in vitro culture): 27.3%
- Blastocyst, number of embryos (SCNT porcine embryos; 0.4 μg/ml DEM for 4 hours after activation, sixth day of in vitro culture, of N=187): 51
- No. of Cells/Blastocysts (SCNT porcine embryos; 0.4 μg/ml DEM for 4 hours, bis-benzimide staining): 39.5
- development to blastocysts versus Comparative Example 1 (not treated with DEM) (SCNT porcine embryos; embryos treated with DEM, then cultured in vitro): significantly improved
- change in in vitro development of the SCNT embryos according to the time of DEM treatment (SCNT embryos [3]; 0.4 μg/ml DEM for 2, 4 and 6 hours): wasn't a significant change
- Blastocysts (%) (SCNT embryos [3]; 0.4 μg/ml DEM for 2 hrs): 24.8%
- No. of Cells/Blastocysts (SCNT embryos [3]; 0.4 μg/ml DEM for 2 hrs): 35.3 ± 2.1
- ≧2 cells (%) (SCNT embryos [3]; 0.4 μg/ml DEM for 2 hrs): 84.4%
- Blastocysts, number of embryos (SCNT embryos [3]; [5]): 35
- ≧2 cells, number of embryos (SCNT embryos [3]; [5]): 119
- Blastocysts (%) (SCNT embryos [3]; 0.4 μg/ml DEM for 4 hrs): 29.6%
- No. of Cells/Blastocysts (SCNT embryos [3]; 0.4 μg/ml DEM for 4 hrs): 35.2 ± 1.8
- ≧2 cells (%) (SCNT embryos [3]; 0.4 μg/ml DEM for 4 hrs): 80.3%
- Blastocysts, number of embryos (SCNT embryos [3]; [6]): 42
- ≧2 cells, number of embryos (SCNT embryos [3]; [6]): 114
- Blastocysts (%) (SCNT embryos [3]; 0.4 μg/ml DEM for 6 hrs): 25.4%
- No. of Cells/Blastocysts (SCNT embryos [3]; 0.4 μg/ml DEM for 6 hrs): 30.8 ± 2.7
- ≧2 cells (%) (SCNT embryos [3]; 0.4 μg/ml DEM for 6 hrs): 78.2%
- Blastocysts, number of embryos (SCNT embryos [3]; [7]): 36
- ≧2 cells, number of embryos (SCNT embryos [3]; [7]): 111
- in vitro development of SCNT embryos, comparison of treatment times (SCNT embryos [3]; 4-hour incubation period with 0.4 μg/ml DEM): highest level of growth
